Where a name gives a salt, the structure may show the parent alone. Activity calls are given as the source filed them. No cut-off for these calls is given here. Where a SMILES comes first, the peptide text is derived from it. The star is where a group is joined. Tfa = O=C(C(F)(F)F)*
Columns and labels:
Pseudomonas aeruginosa [1] = experiment: Antibacterial activity against Pseudomonas aeruginosa assessed as reduction in microbial growth after 24 hrs by microplate reader method; format: functional
Escherichia coli [2] = experiment: Antibacterial activity against Escherichia coli assessed as reduction in microbial growth after 24 hrs by microplate reader method; format: functional
Staphylococcus aureus [3] = experiment: Antibacterial activity against Staphylococcus aureus assessed as reduction in microbial growth after 24 hrs by microplate reader method; format: functional
Cell membrane [4] = experiment: Disruption of membrane integrity in Staphylococcus aureus at 2 times MIC measured after 20 mins by SEM analysis
Escherichia coli [5] = experiment: Potentiation of polymyxin B-induced antibacterial activity against Escherichia coli assessed as polymyxin B MIC incubated for 24 hrs by microplate reader method; format: functional
Pseudomonas aeruginosa [6] = experiment: Synergistic antibacterial activity against Pseudomonas aeruginosa assessed as fractional inhibitory concentration index incubated for 24 hrs in presence of Polymyxin B; format: functional
Pseudomonas aeruginosa [7] = experiment: Antibacterial activity against Pseudomonas aeruginosa assessed as reduction in microbial growth after 24 hrs in presence of polymyxin B by microplate reader method; format: functional
Escherichia coli [8] = experiment: Antibiofilm activity against Escherichia coli assessed as as inhibition of biofilm formation incubated for 48 hrs by crystal violet staining assay; format: functional
[9] = target: NAD-dependent histone deacetylase SIR2 (Saccharomyces cerevisiae S288c) (UniProt P06700); experiment: Inhibition of yeast sirtuin2-mediated Ura3 transcriptional silencing at telomeric locus assessed as yeast killing at 50 uM incubated for 72 hrs in presence of FOA by absorbance based analysis
Chain of NAD-dependent histone deacetylase SIR2 (Saccharomyces cerevisiae S288c) (P06700 whole entry): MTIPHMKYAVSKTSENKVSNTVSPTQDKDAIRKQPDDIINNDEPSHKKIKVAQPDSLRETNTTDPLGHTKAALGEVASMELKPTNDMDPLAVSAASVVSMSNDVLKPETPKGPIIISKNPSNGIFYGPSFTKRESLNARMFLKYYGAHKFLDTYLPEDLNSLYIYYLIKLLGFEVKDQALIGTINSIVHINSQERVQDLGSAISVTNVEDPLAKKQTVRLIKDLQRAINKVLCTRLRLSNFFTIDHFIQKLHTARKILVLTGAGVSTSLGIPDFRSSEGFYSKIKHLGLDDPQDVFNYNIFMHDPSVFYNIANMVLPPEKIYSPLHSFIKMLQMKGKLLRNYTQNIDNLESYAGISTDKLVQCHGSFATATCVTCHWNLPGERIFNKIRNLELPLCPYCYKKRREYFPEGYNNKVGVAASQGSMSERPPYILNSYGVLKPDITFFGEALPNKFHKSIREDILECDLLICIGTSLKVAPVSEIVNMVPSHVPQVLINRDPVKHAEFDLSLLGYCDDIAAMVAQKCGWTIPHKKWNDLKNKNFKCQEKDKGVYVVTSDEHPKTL

Staphylococcus aureus [10] = experiment: Potentiation of streptomycin-induced antibacterial activity against Staphylococcus aureus assessed as fold change in streptomycin MIC incubated for 24 hrs by microplate reader method; format: functional
[11] = Hemolytic activity against mouse RBC at 1000 uM measured after 1 hr by microplate reader analysis; format: cell-based, Erythrocyte; conditions: mouse red blood cells (erythrocytes), read-out: Activity
Escherichia coli [12] = experiment: Antibiofilm activity against Escherichia coli assessed as biofilm eradication at 2XMBEC incubated for 12 hrs by SYTO9/PI staining based microscopic analysis; format: functional, organism-based
Pseudomonas aeruginosa [13] = experiment: Potentiation of polymyxin B-induced antibacterial activity against Pseudomonas aeruginosa assessed as polymyxin B MIC incubated for 24 hrs by microplate reader method; format: functional
Staphylococcus aureus [14] = experiment: Antibiofilm activity against Staphylococcus aureus assessed as inhibition of biofilm formation incubated for 48 hrs by crystal violet staining assay; format: functional
HeLa = experiment: Cytotoxicity against human HeLa cells assessed as reduction in cell viability incubated for 48 hrs by MTT assay; format: cell-based
Staphylococcus aureus [15] = experiment: Antibiofilm activity against Staphylococcus aureus assessed as biofilm eradication incubated for 24 hrs by crystal violet staining assay; format: functional
Escherichia coli [16] = experiment: Synergistic antibacterial activity against Escherichia coli assessed as fractional inhibitory concentration index incubated for 24 hrs in presence of Polymyxin B; format: functional
Lipid bilayer [17] = experiment: Binding affinity to bacterial inner membrane mimic POPE/POPG (3:1) LUVs assessed as increase in intensity by one-dimensional 19F NMR based analysis
[18] = Inhibition of transcriptional machinery using Puc19-lacCONS plasmid DNA and Escherichia coli RNA polymerase-sigma70 holoenzyme at 40 uM incubated for 35 mins followed by NTP addition for 30 mins by spectrofluorometer analysis; format: functional; conditions: time 65.0 min
Cell membrane [19] = experiment: Disruption of membrane integrity in Escherichia coli at 2 times MIC measured after 20 mins by SEM analysis
BE(2)-C = experiment: Cytotoxicity against human BE(2)-C cells assessed as reduction in cell viability incubated for 48 hrs by MTT assay; format: cell-based
Staphylococcus aureus [20] = experiment: Synergistic antibacterial activity against Staphylococcus aureus assessed as fractional inhibitory concentration index incubated for 24 hrs in presence of streptomycin; format: functional
Lipid bilayer [21] = experiment: Binding affinity to bacterial inner membrane mimic DOPE/DOPG (3:1) large unilamellar vesicles assessed as calcein leakage at 20 uM by fluorescence based assay
Escherichia coli [22] = experiment: Antibiofilm activity against Escherichia coli assessed as biofilm eradication incubated for 24 hrs by crystal violet staining assay; format: functional
Staphylococcus aureus [23] = experiment: Potentiation of streptomycin-induced antibacterial activity against Staphylococcus aureus assessed as streptomycin MIC incubated for 24 hrs by microplate reader method; format: functional
Staphylococcus aureus [24] = experiment: Antibacterial activity against Staphylococcus aureus assessed as reduction in microbial growth after 24 hrs in presence of streptomycin by microplate reader method; format: functional
Staphylococcus aureus [25] = experiment: Antibiofilm activity against Staphylococcus aureus assessed as biofilm eradication at 2XMBEC incubated for 12 hrs by SYTO9/PI staining based microscopic analysis; format: functional, organism-based
Lipid bilayer [26] = experiment: Binding affinity to mammalian membrane mimic DOPC/40% cholesterol assessed as calcein leakage at 20 uM by fluorescence based assay; format: ADME
Escherichia coli [27] = experiment: Antibacterial activity against Escherichia coli assessed as reduction in microbial growth after 24 hrs in presence of polymyxin B by microplate reader method; format: functional
Lipid bilayer [28] = experiment: Binding affinity to bacterial inner membrane mimic DOPE/DOPG (3:1) large unilamellar vesicles assessed as calcein leakage at 2.5 uM by fluorescence based assay
Cell membrane [29] = experiment: Disruption of membrane integrity in Escherichia coli at 2 times MIC by TEM analysis
Cell membrane [30] = experiment: Disruption of membrane integrity in Staphylococcus aureus at 2 times MIC by TEM analysis
[31] = Inhibition of transcriptional machinery using Puc19-lacCONS plasmid DNA and Escherichia coli RNA polymerase-sigma70 holoenzyme at 10 uM incubated for 35 mins followed by NTP addition for 30 mins by spectrofluorometer analysis; format: functional; conditions: time 65.0 min
Cell membrane [32] = experiment: Disruption of membrane integrity in Escherichia coli assessed as cellular leakage at 2 times MIC by TEM analysis

Structure (SMILES) | MIC (Pseudomonas aeruginosa [1]) | MIC (Escherichia coli [2]) | MIC (Staphylococcus aureus [3]) | Activity (Cell membrane [4]) | MIC (Escherichia coli [5]) | fractional inhibitory concentration index (FICI) (Pseudomonas aeruginosa [6]) | MIC (Pseudomonas aeruginosa [7]) | MBIC (Escherichia coli [8]) | inhibition [9] | fold change (FC) (Staphylococcus aureus [10]) | hemolysis at 1 h, 1000 µM [11] | Activity (Escherichia coli [12]) | MIC (Pseudomonas aeruginosa [13]) | MBIC (Staphylococcus aureus [14]) | IC50 (HeLa) | MBEC (Staphylococcus aureus [15]) | fractional inhibitory concentration index (FICI) (Escherichia coli [16]) | Activity (Lipid bilayer [17]) | Activity (Cell membrane [19]) | IC50 (BE(2)-C) | further results
CC(=O)N[C@@H](Cc1ccc(O)cc1)C(=O)NCC(=O)N[C@@H](CCCNC(=N)N)C(=O)N[C@@H](CCCCN)C(=O)N[C@@H](CCCCN)C(=O)N[C@@H](CCCNC(=N)N)C(=O)N[C@@H](CCCNC(=N)N)C(=O)N[C@@H](CCC(N)=O)C(=O)N[C@@H](CCCNC(=N)N)C(=O)N[C@@H](CCCNC(=N)N)C(=O)N[C@@H](CCCNC(=N)N)C(=O)O | > 100 µM | 50 µM | 1.5 µM |  |  |  |  |  |  |  |  |  |  |  |  |  |  |  |  |  | 
CC(=O)N[C@@H](CCCCN)C(=O)NCC(=O)N[C@@H](CC(C)C)C(=O)N[C@@H](CCCNC(=N)N)C(=O)N[C@@H](CCCCNC(=O)C(F)(F)F)C(=O)N[C@@H](Cc1ccccc1)C(=O)NCC(=O)N[C@@H](C)C(=O)N[C@@H](CCCCNC(=O)C(F)(F)F)C(=O)N[C@@H](CCCNC(=N)N)C(=O)N[C@@H](Cc1cnc[nH]1)C(=O)N[C@@H](CCCNC(=N)N)C(=O)N[C@@H](CS)C(N)=O (Ac-KGLRK(Tfa)FGAK(Tfa)RHRC-NH2) | > 250 µM | 125 µM | 1.5 µM | inactive | 0.05 µM | 0.36 | 25 µM | inactive | Active | 6 | < 5% | Active | 0.1 µM | 6.3 µM | 84.4 µM | 12.5 µM | 0.19 | Active | inactive | 81.6 µM | inhibition [18]: Active; fractional inhibitory concentration index (FICI) (Staphylococcus aureus [20]): 0.3; Activity (Lipid bilayer [21]): 70%; MBEC (Escherichia coli [22]): inactive; MIC (Staphylococcus aureus [23]): 0.38 µM; MIC (Staphylococcus aureus [24]): 0.63 µM; Activity (Staphylococcus aureus [25]): Active; Activity (Lipid bilayer [26]): < 20%; MIC (Escherichia coli [27]): 7.81 µM
CC(=O)N[C@@H](Cc1ccc(O)cc1)C(=O)NCC(=O)N[C@@H](CCCNC(=N)N)C(=O)N[C@@H](CCCCN)C(=O)N[C@@H](CCCCN)C(=O)N[C@@H](CCCNC(=N)N)C(=O)N[C@@H](CCCNC(=N)N)C(=O)N[C@@H](CCC(N)=O)C(=O)N[C@@H](CCCNC(=N)N)C(=O)N[C@@H](CCCNC(=N)N)C(=O)N[C@@H](CCCNC(=N)N)C(=O)NCC(=O)NCC(=O)NCC(=O)N[C@@H](CCCCN)C(=O)NCC(=O)N[C@@H](CC(C)C)C(=O)N[C@@H](CCCNC(=N)N)C(=O)N[C@@H](CCCCNC(=O)C(F)(F)F)C(=O)N[C@@H](Cc1ccccc1)C(=O)NCC(=O)N[C@@H](C)C(=O)N[C@@H](CCCCNC(=O)C(F)(F)F)C(=O)N[C@@H](CCCNC(=N)N)C(=O)N[C@@H](Cc1cnc[nH]1)C(=O)N[C@@H](CCCNC(=N)N)C(=O)N[C@@H](CS)C(N)=O (Ac-YGRKKRRQRRRGGGKGLRK(Tfa)FGAK(Tfa)RHRC-NH2) | 25 µM | 1.5 µM | 0.2 µM | Active | 0.1 µM | 0.3 | 6.25 µM | 15.6 µM | Active | 6 | < 5% | Active | 0.05 µM | 0.8 µM | 31.6 µM | 3.2 µM | 0.73 | Active | Active | 23.4 µM | Activity (Lipid bilayer [28]): 90%; Activity (Cell membrane [29]): Active; Activity (Cell membrane [30]): Active; fractional inhibitory concentration index (FICI) (Staphylococcus aureus [20]): 0.22; inhibition [31]: 100%; Activity (Lipid bilayer [21]): Active; MBEC (Escherichia coli [22]): 62.5 µM; MIC (Staphylococcus aureus [23]): 0.38 µM; MIC (Staphylococcus aureus [24]): 0.05 µM; Activity (Cell membrane [32]): Active; Activity (Staphylococcus aureus [25]): Active; Activity (Lipid bilayer [26]): < 20%; MIC (Escherichia coli [27]): 0.63 µM

Source: ChEMBL document CHEMBL4814071, “Synthesis and antibacterial study of cell-penetrating peptide conjugated trifluoroacetyl and thioacetyl lysine modified peptides” (Eur J Med Chem, 2021)
